Assay results taken from patent US20230181535A1, “UBIQUITIN-LIGASE INHIBITORS FOR THE TREATMENT OF CANCER” (FUNDACIÓN PROFESOR NOVOA SANTOS, priority 2020, published 2023).

How the values were obtained:
Type in all cases: cell-based
[1] = test system: LoVo colon tumour cell line; experiment: MTT cell viability assay, LoVo; conditions: increasing range of concentrations
Procedure: For cytotoxicity assays, 1×10^4 cells were seeded per well into a 96-well plate. After 24 h cells were treated with the indicated inhibitors for 72 h and a MTT colorimetric cell viability assay was performed following manufacturer's instructions (Sigma Aldrich, St Louis, Mo.). Absorbance was measured at 570 and 630 nm using a Multiskan Plus Reader (Nanoquant Infinite M200 Tecan Trading AG, Switzerland). Dose-response curves were designed with Graph Pad Prism Software and the half-maximal inhibitory concentration (IC50) values were calculated. Represented data are the mean±SEM of at least three independent experiments with six replicates per condition.

[2] = test system: tumour culture cells; experiment: In vitro antitumor effect (summary of cell assays)
[3] = test system: LoVo cells; experiment: Western blotting of EMT markers, LoVo; conditions: 48 h
Procedure: For western blot analysis, cells were treated with the indicated inhibitors for 48 h and the whole cell extracts were obtained as described previously. Twenty micrograms of lysates were resolved on a 10% polyacrilamide SDS-PAGE followed by western blot analysis performed as previously described. For immunofluorescence assays cells were grown for 24 h on glass coverslips and treated with the indicated inhibitors for 48 h. Cells were fixed with 4% PFA for 15 min, permeabilized with 0.5% […] and incubated with E-cadherin antibody for 2 h. Coverslips were incubated with fluorescein-tagged secondary antibody (Dakopatts, Sweden) for […]. Finally coverslips were mounted with ProLong Gold antifade reagent (LifeTech, UK) and images were taken in epifluorescence microscope (Olympus) using 40× objective. […] One set of SIM Synthetic Focus images were taken in the DAPI channel for Hoechst 33342 staining, and another set of images were taken in the FITC channel for anti-E-cadherin-AlexaFluor488 labeling and analysed by Structured Illumination Microscopy (SIM™) platform to image the cells and Vala's CyteSeer® Cell-Cell Junction Algorithm to quantify the degree of expression and intracellular location of E-cadherin Vala's CyteSeer® Software can also measure relative DNA content by analyzing Total Integrated Intensity (TII) of the Nuclear Image (Ni) on the Nuclear Mask (Nm). […]

SMILES: O=C(O)c1ccc(-n2nnnc2SCC(=O)c2ccc([N+](=O)[O-])cc2)cc1 [Hakin-1, 4-(5-[2-(4-nitrophenyl)-2-oxoethyl]thiol-1H-tetrazol-1-yl)benzoic acid]
- cytotoxicity (cell viability, MTT) [1]: important inhibitory response
- concentration at which the in vitro antitumor effect was observed [2]: 100 to 200 µM
- EMT markers (western blotting) [3]: confirmed these results
